Source: US12037324B2, “Biarylmethyl heterocycles” (Université de Montréal, priority 2016, dated 2024)

Legend:
hAT1R [1] = target: T1, hAT1R (Homo sapiens, UniProt P30556); test: BRET Gq biosensor assay, agonist response, HEK293 cells; assay type: cell-based; conditions: section of the 42nd table directly before the BRET P63 section
T1 sequence (P30556 1-359): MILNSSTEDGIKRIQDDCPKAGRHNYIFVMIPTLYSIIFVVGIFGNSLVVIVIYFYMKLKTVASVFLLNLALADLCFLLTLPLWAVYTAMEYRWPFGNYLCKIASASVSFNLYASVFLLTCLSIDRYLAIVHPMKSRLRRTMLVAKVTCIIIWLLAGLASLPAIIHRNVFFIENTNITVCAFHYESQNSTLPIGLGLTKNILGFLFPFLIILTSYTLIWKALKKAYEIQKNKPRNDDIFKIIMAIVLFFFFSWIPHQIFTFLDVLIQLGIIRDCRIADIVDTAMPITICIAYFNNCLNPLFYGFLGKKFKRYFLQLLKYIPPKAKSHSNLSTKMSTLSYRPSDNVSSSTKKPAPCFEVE
Procedure, shortened: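 Agonist EC50 derived from a 4-parameter fit of BRET2 ratio (GFP 515 nm/Rluc 410 nm), scaled between unstimulated control and maximal AngII response. Readings taken 5 min after compound addition at room temperature, with 2 μM coelenterazine, in HEK293 cells expressing hAT1R, Gαq-Rluc, Gβ1 and GFP-Gγ1 (transfected two days earlier).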

hAT1R [2] = target: T1, hAT1R; test: cell-based; conditions: section of the 42nd table ending at r951, example numbering restarts after the DiscoveRx section; read-out: β-arrestin2 EC50
AGTR1 = target: T2, AGTR1 (Homo sapiens, UniProt P30556); test: DiscoveRx β-arrestin2 recruitment assay (enzyme complementation, Pathunter CHO-K1 AGTR1 β-arrestin cell line); assay type: cell-based; conditions: DiscoveRx β-arrestin2 recruitment; for DiscoveRx β-arrestin2 Ymax (%): maximal response
T2 construct: host or cells: Pathunter CHO-K1 AGTR1 β-arrestin cell line (CHO-K1)
T2 sequence (P30556 1-359): T1 sequence (P30556 1-359)
Procedure, shortened: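 Chemiluminescent enzyme-complementation read-out of β-arrestin2 recruitment to AGTR1 in engineered CHO-K1 cells after 90 min compound exposure at 37° C. Values are 4-parameter logistic EC50s in agonist mode, IC50s in antagonist mode, with efficacy relative to the maximal All response.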

hAT1R [3] = target: T1, hAT1R; test: BRET β-arrestin2 biosensor assay, higher receptor expression (hAT1R 5 ng/well), HEK293 cells; assay type: cell-based; conditions: for EC50: High AT1R Expression
hAT1R [4] = target: T1, hAT1R; test: cell-based; conditions: agonist mode; for EC50: read-out: BRET P63 EC50

| Structure (SMILES) | EC50 (hAT1R [1]) [nM] | EC50 (hAT1R [2]) [nM] | EC50 (AGTR1) [nM] | DiscoveRx β-arrestin2 Ymax (%) (AGTR1) | BRET β-Arrestin2 High AT1R Expression Ymax (%) (hAT1R [3]) | EC50 (hAT1R [3]) [nM] | BRET P63 Ymax (hAT1R [4]) [%] | EC50 (hAT1R [4]) [nM] |
| --- | --- | --- | --- | --- | --- | --- | --- | --- |
| CCCCC(=O)N(Cc1ccc(-c2cc(-c3cc(C)ccn3)ccc2-c2nn[nH]n2)cc1)C1(C(=O)O)CCCCC1 [Example 295] | 217 | 39 | 47.5 | 60.3 | 92.5 | 14 | 12.9 | 120 |
| CCOc1nc2cccc(C(=O)O)c2n1Cc1ccc(-c2cc(-c3ccccc3)ccc2-c2noc(=O)[nH]2)cc1 [Example 311, 2-ethoxy-1-((6′-(5-oxo-4,5-dihydro-1,2,4-oxadiazol-3-yl)-[1,1′:3′,1″-terphenyl]-4-yl)methyl)-1H-benzo[d]imidazole-7-carboxylic acid] | 18.1 | 4.2 | 3.9 | 77.6 | 92.0 | 1.5 | 13.2 | 3.6 |
| CCOc1nc2cccc(C(=O)O)c2n1Cc1ccc(-c2cc(-c3ccccc3)ccc2-c2nn[nH]n2)cc1 [Example 312, 1-((6′-(2H-tetrazol-5-yl)-[1,1′:3′,1″-terphenyl]-4-yl)methyl)-2-ethoxy-1H-benzo[d]imidazole-7-carboxylic acid] | 20.7 | 5.8 | 22.5 | 79.9 | 91.8 | 2.6 | 9.4 | 17.2 |
| CCOc1nc2cccc(C(=O)O)c2n1Cc1ccc(-c2cc(-c3cccc(C)c3)ccc2C(=O)O)cc1 [Example 313, 1-((6′-carboxy-3″-methyl-[1,1′:3′,1″-terphenyl]-4-yl)methyl)-2-ethoxy-1H-benzo[d]imidazole-7-carboxylic acid] | 82.1 | 21.5 | 28.1 | 46.1 | 92.9 | 7.7 | 6.3 | 46.7 |
| CCOc1nc2cccc(C(=O)O)c2n1Cc1ccc(-c2cc(-c3ccccc3)ccc2C(=O)O)cc1 [Example 314, 1-((6′-carboxy-[1,1′:3′,1″-terphenyl]-4-yl)methyl)-2-ethoxy-1H-benzo[d]imidazole-7-carboxylic acid] | 129 | 36.6 | 3.5 | 66.8 | 90.3 | 5.8 | 12.8 | 67.8 |
| CCOc1nc2cccc(C(=O)O)c2n1Cc1ccc(-c2cc(-c3c[nH]c4ccccc34)ccc2-c2noc(=O)[nH]2)cc1 [Example 322] | 93.3 | 9.7 | 39.2 | 33.7 | 80.9 | 8.4 | 5.1 | 53.7 |
| CCOc1nc2cccc(C(=O)O)c2n1Cc1ccc(-c2cc(Oc3cnccc3C)ccc2-c2nn[nH]n2)cc1 [Example 337] | 55.8 | 631 | 40.6 | 85.6 | – | – | – | > 10000 |
| CCOc1nc2cccc(C(=O)O)c2n1Cc1ccc(-c2cc(-n3ccc(C(F)(F)F)n3)ccc2-c2nn[nH]n2)cc1 [Example 338] | 30.8 | 16.3 | 17.8 | 68.9 | – | – | – | > 10000 |
| CCOc1nc2cccc(C(=O)O)c2n1Cc1ccc(-c2cc(-n3cnc4ccccc43)ccc2-c2nn[nH]n2)cc1 [Example 339] | 52.1 | 12.8 | 10.6 | 58.0 | – | – | – | > 10000 |
| CCCCc1ncc(C(=O)NCc2cnn(C)c2)n1Cc1ccc(-c2cc(-c3ccccc3)ccc2-c2nn[nH]n2)cc1 [Example 346] | 67.1 | 11.1 | 13 | 44.5 | 92.1 | 7.1 | 6.0 | 19.3 |
| CCCCc1nc(Cl)c(C(=O)O)n1Cc1ccc(-c2cc(-c3ccccc3)ccc2-c2nn[nH]n2)cc1 [Example 384, 1-((6′-(2H-tetrazol-5-yl)-[1,1′:3′,1″-terphenyl]-4-yl)methyl)-2-butyl-4-chloro-1H-imidazole-5-carboxylic acid] | 39.1 | 10.8 | 8 | 49.3 | 83.8 | 6.9 | – | > 10000 |
| CCCCc1nc(Cl)c(C(=O)O)n1Cc1ccc(-c2cc(-c3cn(C(C)C)nc3C(F)(F)F)ccc2-c2nn[nH]n2)cc1 [Example 388] | 810 | 26.7 | 44.7 | 71.7 | 96.2 | 4.6 | 30.4 | 39.8 |
| CCCCc1nc(Cl)c(C(=O)O)n1Cc1ccc(-c2cc(-c3ccc(C(=O)N(C)C)cc3)ccc2-c2nn[nH]n2)cc1 [Example 390] | 23.7 | 97 | 11.8 | 53.5 | 95.3 | 24.4 | 11.9 | 127 |
| CCCCc1nc(Cl)c(C(=O)O)n1Cc1ccc(-c2cc(N3CCC[C@H](C)C3)ccc2-c2nn[nH]n2)cc1 [Example 418, (S)-2-butyl-4-chloro-1-((5′-(3-methylpiperidin-1-yl)-2′-(2H-tetrazol-5-yl)-[1,1′-biphenyl]-4-yl)methyl)-1H-imidazole-5-carboxylic acid] | 478 | 154 | 67.8 | 31.2 | – | – | – | > 10000 |
| CCCCc1nc(Cl)c(C(=O)O)n1Cc1ccc(-c2cc(N3CCC[C@@H](C)C3)ccc2-c2nn[nH]n2)cc1 [Example 419, (R)-2-butyl-4-chloro-1-((5′-(3-methylpiperidin-1-yl)-2′-(2H-tetrazol-5-yl)-[1,1′-biphenyl]-4-yl)methyl)-1H-imidazole-5-carboxylic acid] | 228 | 85.2 | 121 | 33.9 | – | – | – | > 10000 |
| CCCc1nc(CC)c(C(=O)O)n1Cc1ccc(-c2cc(-c3ccccc3)ccc2-c2nn[nH]n2)c(C)c1 [Example 425] | 105 | 47.4 | 27.3 | 54.2 | – | – | – | > 10000 |
| CCCc1nc(CC)c(C(N)=O)n1Cc1ccc(-c2cc(-c3ccccc3)ccc2-c2nn[nH]n2)c(C)c1 [Example 426] | 86 | 49.6 | 34.2 | 52.5 | – | – | – | > 10000 |
| CCCCc1nc(Cl)c(C(=O)O)n1Cc1ccc(-c2cc(Oc3ccccn3)ccc2-c2nn[nH]n2)cc1 [Example 427, 2-Butyl-4-chloro-1-((5′-(pyridin-2-yloxy)-2′-(2H-tetrazol-5-yl)-[1,1′-biphenyl]-4-yl)methyl)-1H-imidazole-5-carboxylic acid] | 575 | > 10000 | 89.9 | 19.6 | – | – | – | > 10000 |
